Data reported in ChEMBL document CHEMBL5058641, “Data for DCP probe TP-050” (2022).

Experiments:
[1] = target: Muscarinic acetylcholine receptor M1 (Homo sapiens, UniProt P11229); test: CHRM1 Eurofins SafetyScan (Receptor)
D(2) dopamine receptor = D(2) dopamine receptor (Homo sapiens, UniProt P14416); test: DRD2S Eurofins SafetyScan (Receptor)
D(2) dopamine receptor, sequence (P14416 whole entry): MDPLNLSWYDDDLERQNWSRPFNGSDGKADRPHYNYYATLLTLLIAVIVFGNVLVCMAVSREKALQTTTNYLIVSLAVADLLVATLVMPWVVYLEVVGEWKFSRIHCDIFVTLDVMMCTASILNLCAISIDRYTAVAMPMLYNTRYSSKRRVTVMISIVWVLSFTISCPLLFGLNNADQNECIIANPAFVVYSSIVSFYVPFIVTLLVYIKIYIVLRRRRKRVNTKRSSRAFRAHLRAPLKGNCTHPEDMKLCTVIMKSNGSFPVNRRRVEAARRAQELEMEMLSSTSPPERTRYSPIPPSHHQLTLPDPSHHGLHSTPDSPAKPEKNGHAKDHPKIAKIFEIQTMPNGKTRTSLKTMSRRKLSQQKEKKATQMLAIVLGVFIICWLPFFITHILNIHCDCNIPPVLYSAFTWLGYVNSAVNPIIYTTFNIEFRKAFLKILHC

Muscarinic acetylcholine receptor M1, sequence (P11229 whole entry): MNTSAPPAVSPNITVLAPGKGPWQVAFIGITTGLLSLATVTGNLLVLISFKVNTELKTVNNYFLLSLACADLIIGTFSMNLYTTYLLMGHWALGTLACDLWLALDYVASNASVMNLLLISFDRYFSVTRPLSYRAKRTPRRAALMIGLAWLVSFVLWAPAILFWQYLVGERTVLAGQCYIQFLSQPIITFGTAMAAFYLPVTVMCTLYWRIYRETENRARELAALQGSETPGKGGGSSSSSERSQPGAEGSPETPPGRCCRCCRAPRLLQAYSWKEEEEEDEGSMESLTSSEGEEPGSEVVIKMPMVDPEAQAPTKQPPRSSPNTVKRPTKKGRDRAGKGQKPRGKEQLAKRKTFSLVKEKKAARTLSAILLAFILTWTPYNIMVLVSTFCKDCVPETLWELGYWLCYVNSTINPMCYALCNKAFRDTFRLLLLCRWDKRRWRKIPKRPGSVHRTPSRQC

Cc1cn([C@H](C)CC#N)c(=O)c2cc(Cn3nc(C(F)F)cc3Cl)nn12
> 10 µM: EC50 [1] | IC50 [1] | EC50 (D(2) dopamine receptor) | IC50 (D(2) dopamine receptor)
